Data taken from patent US12227501B2, “3-amino-2-[2-(acylamino)pyridin-4-yl]-1,5,6,7-tetrahydro-4h-pyrrolo[3,2-c]pyridin-4-one as CSNK1 inhibitors” (Bayer Aktiengesellschaft, priority 2019, dated 2025).
Read-outs that look alike come from different tables or passages of the source.

Tests used:
[1] = target: human CSNK1A1 (Homo sapiens (Human), UniProt P48729); test: CSNK1A1 Assay 1 (ADP-Glo, 1 μM ATP); assay type: biochemical; conditions: read-out: CSNK1A1 Assay 1 IC50 [mol/l] (median)
Procedure: CSNK1A1-inhibitory activity of compounds of the present invention in presence of 1 μM adenosine-tri-phosphate (ATP) was quantified employing the CSNK1A1 assay as described in the following paragraphs. In essence, the enzyme activity is measured by quantification of the adenosine-di-phosphate (ADP), which is generated as a co-product of the enzyme reaction, via the “ADP-Glo™ Kinase Assay” kit from the company Promega. This detection system works as follows: In a first step the ATP not consumed in the kinase reaction is quantitatively converted to cAMP employing an adenylate cyclase (“ADP-Glo-reagent”), then the adenylate cyclase is stopped and the ADP generated in the kinase reaction converted to ATP which generates in a luciferase-based reaction a glow-luminescence signal (“Kinase Detection Reagent”). Recombinant fusion protein of N-terminal Glutathion-S-Transferase (GST) and full-length human CSNK1A1, expressed by baculovirus infected insect cells and purified via Glutathion affinity chromatography, was purchased from Life Technologies (product no. PV4174) and used as enzyme. As substrate for the kinase reaction the biotinylated peptide Btn-Ahx-[…] (C-terminus in amide form) was used which can be purchased e.g. from the company Biosyntan (Berlin-Buch, Germany).
For the assay 50 nl of a 100 fold concentrated solution of the test compound in DMSO was pipetted into a white 1536-well microtiter plate (Greiner Bio-One, Frickenhausen, Germany), 2 μL of a solution of CSNK1A1 in aqueous assay buffer [50 mM HEPES pH 7.5, 10% (v/v) glycerol, 10 mM MgCl2, 50 mM NaCl, 1 mM dithiothreitol, 0.01% (w/v) bovine serum albumin, 0.01% (v/v) Triton X-100] were added and the mixture was incubated for 15 min at 22° C. to allow pre-binding of the test compounds to the enzyme before the start of the kinase reaction. […] The concentration of CSNK1A1 was adjusted depending of the activity of the enzyme lot and was chosen appropriate to have the assay in the linear range, a typical concentration is 0.15 ng/μL. The reaction was stopped by the addition of 2.5 μL of “ADP-Glo-reagent” (1:1.5 fold diluted with water) and the resulting mixture was incubated at 22° C. for 1 h to convert the ATP not consumed in the kinase reaction completely […]. Subsequently 2.5 μL of the “kinase detection reagent” (1.2 fold more concentrated than recommended by the producer) were added, the resulting mixture was incubated at 22° C. for 1 h and then the luminescence measured with a suitable measurement instrument (e.g. Viewlux™ from Perkin-Elmer). The amount of emitted light was taken as a measure for the amount of ADP generated and thereby for the activity of the CSNK1A1.

[2] = target: human CSNK1D (Homo sapiens (Human), UniProt P48730); test: CSNK1D Assay (ADP-Glo, 1 μM ATP); assay type: biochemical; conditions: read-out: CSNK1D IC50 [mol/l] (median)
Sequence of human CSNK1D (P48730 whole entry): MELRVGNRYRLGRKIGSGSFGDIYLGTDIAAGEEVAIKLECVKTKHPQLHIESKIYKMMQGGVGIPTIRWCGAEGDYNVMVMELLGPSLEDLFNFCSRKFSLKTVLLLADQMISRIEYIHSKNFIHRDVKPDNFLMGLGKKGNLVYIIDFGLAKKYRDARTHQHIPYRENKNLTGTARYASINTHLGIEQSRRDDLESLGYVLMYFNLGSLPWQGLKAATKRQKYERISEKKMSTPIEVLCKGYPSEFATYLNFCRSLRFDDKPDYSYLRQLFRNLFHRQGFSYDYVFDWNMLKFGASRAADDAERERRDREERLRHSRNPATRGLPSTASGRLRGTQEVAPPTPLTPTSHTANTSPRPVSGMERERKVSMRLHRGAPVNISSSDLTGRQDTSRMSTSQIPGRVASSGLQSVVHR
Procedure, shortened: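 Activity is read as ADP produced, by ADP-Glo luminescence after 1 h steps at 22 °C. The reaction uses 1 μM ATP, a biotinylated peptide and insect-cell-expressed GST–CSNK1D (about 0.5 ng/μL) in pH 7.5 HEPES buffer, with 15 min compound–enzyme preincubation.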

[3] = substrate Btn-Ahx-SGSEGDSESGEEEG

Sequence of human CSNK1A1 (P48729 whole entry): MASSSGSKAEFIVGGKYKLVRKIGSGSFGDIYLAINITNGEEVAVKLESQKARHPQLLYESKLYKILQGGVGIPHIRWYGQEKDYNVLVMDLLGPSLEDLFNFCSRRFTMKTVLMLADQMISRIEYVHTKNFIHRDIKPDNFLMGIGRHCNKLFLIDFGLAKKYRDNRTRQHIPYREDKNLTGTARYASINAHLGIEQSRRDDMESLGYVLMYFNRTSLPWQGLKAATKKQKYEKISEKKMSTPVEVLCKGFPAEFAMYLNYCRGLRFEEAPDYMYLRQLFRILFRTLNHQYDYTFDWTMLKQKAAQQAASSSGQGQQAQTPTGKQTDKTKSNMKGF

| SMILES | IC50 ([1]; substrate Btn-Ahx-[…]) | IC50 [2] | IC50 [1, 3] |
| --- | --- | --- | --- |
| C[C@H](C(=O)Nc1cc(-c2[nH]c3c(c2Nc2ccccc2)C(=O)N(C)CC3)ccn1)c1ccc(F)cc1 (single isomer, unassigned) [Example 5] | 0.00362 µM | 0.0121 µM | – |
| C[C@@H](C(=O)Nc1cc(-c2[nH]c3c(c2Nc2ccccc2)C(=O)N(C)CC3)ccn1)c1ccc(F)cc1 (single isomer, unassigned) [Example 6] | 0.0333 µM | 0.0496 µM | – |
| CN1CCc2[nH]c(-c3ccnc(NC(=O)Cc4ccc(F)cc4)c3)c(Nc3ccccc3)c2C1=O [Example 1, N-[4-(3-anilino-5-methyl-4-oxo-4,5,6,7-tetrahydro-1H-pyrrolo[3,2-c]pyridin-2-yl)pyridin-2-yl]-2-(4-fluorophenyl)acetamide] | – | 0.00564 µM | 0.00254 µM |
| CC(C(=O)Nc1cc(-c2[nH]c3c(c2Nc2ccccc2)C(=O)N(C)CC3)ccn1)c1ccc(F)cc1 (centres unmarked) [Example 4, N-[4-(3-anilino-5-methyl-4-oxo-4,5,6,7-tetrahydro-1H-pyrrolo[3,2-c]pyridin-2-yl)pyridin-2-yl]-2-(4-fluorophenyl)propanamide] | – | 0.0151 µM | 0.0112 µM |
